Active and inactive are the calls of the source. The calls are words filed in the database; no cut-off is given here.
Key:
Pancreas = assay: Biodistribution in human MIAPaCa2 cells xenografted Swiss mouse Pancreas at 3 mg/kg, ip dosed three times per week measured 48 hrs after last 4 cycles of compound dosing; assay type: ADME, organism-based, MIA PaCa-2; set-up: dose 3 mg/kg, route intraperitoneal; conditions: in vivo
Mus musculus [1] = assay: Reduction in HSP90 protein expression in human MIAPaCa2 cells xenografted Swiss mouse tumor at 3 mg/kg, ip dosed three times per week by immunoblot; assay type: functional, MIA PaCa-2; set-up: scale not given: the % may be the effect or the level left; conditions: route intraperitoneal
Mus musculus [2] = assay: Toxicity in human MIAPaCa2 cells xenografted in Swiss mouse assessed as incidence of weight loss at 3 mg/kg, ip dosed three times per week; assay type: organism-based, MIA PaCa-2; set-up: dose 3 mg/kg, route intraperitoneal; conditions: in vivo
MIA PaCa-2 [3] = assay: Antitumor activity against human MIAPaCa2 cells xenografted in Swiss mouse assessed as reduction tumor volume at 3 mg/kg, ip dosed three times per week; assay type: functional; set-up: scale not given: the % may be the effect or the level left; conditions: route intraperitoneal
MIA PaCa-2 [4] = assay: Effect on PARP protein expression human MIAPaCa2 cells at 0.1 uM to 1 uM incubated for 8 hrs by Western blot; assay type: functional, cell-based
[5] = Toxicity in human MIAPaCa2 cells xenografted in Swiss mouse assessed as maximum tolerated dosed intraperitoneally three times per week; assay type: organism-based, MIA PaCa-2; conditions: in vivo, ip
Nucleic Acid [6] = assay: Stabilization of HSP90a DNA G-quadruplex assessed as change in melting temperature at 1 uM by FRET; assay type: nucleic-acid assay
Nucleic Acid [7] = assay: Stabilization of HSP90a DNA G-quadruplex assessed as change in melting temperature at 0.5 uM by FRET; assay type: nucleic-acid assay
Mus musculus [8] = assay: Reduction in Bcl-2 protein expression in human MIAPaCa2 cells xenografted Swiss mouse tumor at 3 mg/kg, ip dosed three times per week by immunoblot; assay type: functional, MIA PaCa-2; set-up: scale not given: the % may be the effect or the level left; conditions: route intraperitoneal
Nucleic Acid [9] = assay: Stabilization of HSP90b DNA G-quadruplex assessed as change in melting temperature at 1 uM by FRET; assay type: nucleic-acid assay
Nucleic Acid [10] = assay: Stabilization of HSP90b DNA G-quadruplex assessed as change in melting temperature at 0.5 uM by FRET; assay type: nucleic-acid assay
MIA PaCa-2 [11] = assay: Effect on gammaH2AX protein expression human MIAPaCa2 cells at 0.1 uM to 1 uM incubated for 8 hrs by Western blot; assay type: functional, cell-based
Mus musculus [12] = assay: Reduction in k-Ras protein expression in human MIAPaCa2 cells xenografted Swiss mouse tumor at 3 mg/kg, ip dosed three times per week by immunoblot; assay type: functional, organism-based; set-up: dose 3 mg/kg; conditions: MIA PaCa-2
Mus musculus [13] = assay: Reduction in hTERT protein expression in human MIAPaCa2 cells xenografted Swiss mouse tumor at 3 mg/kg, ip dosed three times per week by immunoblot; assay type: functional, MIA PaCa-2; set-up: scale not given: the % may be the effect or the level left; conditions: route intraperitoneal
Mus musculus [14] = assay: Biodistribution in human MIAPaCa2 cells xenografted Swiss mouse tumor at 3 mg/kg, ip dosed three times per week measured 48 hrs after last 4 cycles of compound dosing; assay type: ADME, organism-based, Neoplasm, MIA PaCa-2; set-up: dose 3 mg/kg, route intraperitoneal; conditions: in vivo
Mus musculus [15] = assay: Inhibition of telomerase activity in human MIAPaCa2 cells xenografted Swiss mouse at 3 mg/kg, ip dosed for 25 days by TRAP-LIG assay relative to untreated control; assay type: functional; conditions: MIA PaCa-2, ip, 600 h, route intraperitoneal

In the case of `CN1CCN(CCCNc2cc3c4c(c(NCCCN5CCN(C)CC5)cc5c4c2C(=O)N(CCCN2CCN(C)CC2)C5=O)C(=O)N(CCCN2CCN(C)CC2)C3=O)CC1`, the Drug uptake (Pancreas) is reported as “Active”, the Activity (Mus musculus [1]) is reported as 30% and the Activity (Mus musculus [2]) is reported as “Non-toxic”. The Activity (MIA PaCa-2 [3]) was 50%, the Activity (MIA PaCa-2 [4]) was “inactive” and the MTD [5] was 15 mg/kg. For the same compound, the ΔTm (Nucleic Acid [6]) was 36.3 °C, the ΔTm (Nucleic Acid [7]) was 34.9 °C and the Activity (Mus musculus [8]) was 10%. For the same compound, the ΔTm (Nucleic Acid [9]) was 32 °C, the ΔTm (Nucleic Acid [10]) was 31 °C and the Activity (MIA PaCa-2 [11]) was “inactive”. For the same compound, the Activity (Mus musculus [12]) was “inactive”, the Activity (Mus musculus [13]) was 30% and the Drug uptake (Mus musculus [14]) was “Active”. The inhibition in vivo at 3 mg/kg (Mus musculus [15]) was 50%.

Reference: ChEMBL document CHEMBL2157890, “Targeting pancreatic cancer with a G-quadruplex ligand” (Bioorg Med Chem, 2011)
